Literature values in patent publication US7247752B2, “Methods for the synthesis of astaxanthin” (Cardax Pharmaceuticals, Inc., priority 2004, dated 2007).

System: transformed cells as well as normal prostatic epithelium
Conditions: alone and/or in combination with other antioxidants (e.g. vitamin E)

CC(C)=CCC/C(C)=C/C=C/C(C)=C/C=C/C(C)=C/C=C/C=C(C)/C=C/C=C(C)/C=C/C=C(\C)CCC=C(C)C [lycopene]
growth inhibition of cultured human cells: growth inhibitory
